Experimental data from US12269811B2, “Synthesis of omecamtiv mecarbil” (Amgen Inc., priority 2017, dated 2025).
≈ marks a conversion by molar mass, not a printed value.

What was measured:
Format in all cases: physicochemical
[1] = Dynamic vapor sorption (DVS) isothermal plot of PMEC salt forms; conditions: FIG. 1; for DVS weight increase onset: relative humidity at onset of weight increase
Procedure: The DVS weight increase onset for each salt was measured as noted—35% relative humidity (RH) for the hemi-sulfate; 50% RH for the acetate; and 65% RH for the phosphate hydrate. The phosphate hydrate is termed phosphate or hemi-phosphate and the hemi-sulfate is termed sulfate or hemi-sulfate in the figure.

[2] = Piperazine levels upon storage
[3] = Solubility in isopropanol

For `COC(=O)N1CCNCC1` [acetate, methyl piperazine-1-carboxylate], the “DVS weight increase onset” value [1] was 50 % RH.
For `COC(=O)N1CCNCC1` [hemi-sulfate, methyl piperazine-1-carboxylate], the “DVS weight increase onset” value [1] was 35 % RH.
For `COC(=O)N1CCNCC1` [PMEC freebase, methyl piperazine-1-carboxylate], the “piperazine levels upon storage” value ([2]; storage at 25° C.) was “up to 18 LC area %”.
For `COC(=O)N1CCNCC1` [PMEC phosphate hydrate, methyl piperazine-1-carboxylate], the hygroscopicity ([1]; compared with the sulfate and acetate salts) was “less hygroscopic than the corresponding sulfate and acetate salt”, the “DVS weight increase onset” value [1] was 65 % RH and the “piperazine levels upon storage” value ([2]; upon storage, level <0.4 GC area %) was “do not increase upon storage”.
In the case of `COC(=O)N1CCN(Cc2cccc(NC(=O)Nc3ccc(C)nc3)c2F)CC1` [omecamtiv mecarbil], the solubility in isopropanol ([3]; 20° C.) is reported as “about 10 mg/mL” and the solubility ([3]; 20 °C, organic solvent or mixture) is reported as roughly 12 mg/mL (≈ 29.9 mM).
